{
  "source": "paper PMC2981508",
  "about": "(Science (New York, N.Y.), 2009)",
  "key": {"[1]": {"tested_on": "DU145 human prostate cancer cells", "assay": "Growth of AR-negative DU145 cells in vitro", "type": "cell-based"}, "[2]": {"tested_on": "PSA and TMPRSS2 in parental LNCaP cells", "assay": "Antagonism of R1881 induction of PSA and TMPRSS2 in parental LNCaP cells", "type": "cell-based, human"}, "[3]": {"tested_on": "AR recruitment to PSA enhancer and TMPRSS2 enhancer in parental LNCaP cells", "assay": "Chromatin immunoprecipitation of AR in parental LNCaP cells", "type": "cell-based, human"}, "[4]": {"tested_on": "VCaP cells", "assay": "VCaP cell proliferation", "type": "cell-based, human", "conditions": "1 and 10 μM, media containing FBS"}, "[5]": {"tested_on": "VCaP cells", "assay": "VCaP apoptosis", "type": "cell-based, human", "conditions": "10 μM, 1 or 3 days, PARP cleavage"}, "[6]": {"tested_on": "LNCaP/AR tumors", "assay": "LNCaP/AR xenograft model of CRPC in castrate male mice"}, "[7]": {"tested_on": "serum PSA", "assay": "Phase I/II clinical trial in men with CRPC", "type": "in vivo, human"}, "[8]": {"tested_on": "AR recruitment to PSA enhancer and TMPRSS2 enhancer in LNCaP/AR cells", "assay": "Chromatin immunoprecipitation of AR in LNCaP/AR cells", "type": "cell-based, human"}, "[9]": {"tested_on": "AR target genes PSA and TMPRSS2 in LNCaP/AR cells", "assay": "qRT-PCR of AR-dependent genes in LNCaP/AR cells", "type": "cell-based, human", "conditions": "androgen-depleted media 5% CSS, 8 hours, 1 and 10 μM"}, "[10]": {"assay": "Plasma levels in LNCaP/AR tumor-bearing mice", "conditions": "10 mg/kg oral daily, 20 hours after the final dose on day 28"}, "[11]": {"tested_on": "DU145 prostate cancer xenografts", "assay": "AR-negative DU145 prostate cancer xenografts", "parameters": "species or system mice", "conditions": "mouse, in vivo"}, "[12]": {"tested_on": "AR", "conditions": "cited from earlier work"}, "[13]": {"tested_on": "VP16-AR fusion protein", "type": "cell-based", "conditions": "Cos-7 cells, 24 hours"}},
  "data": [
    {"smiles": "CNC(=O)c1ccc(N2C(=S)N(c3ccc(C#N)c(C(F)(F)F)c3)C(=O)C2(C)C)cc1F", "note": "[MDV3100]", "values": [
      {"measurement": "Growth suppression in AR-negative DU145 cells", "setting": "[1]", "result": "not observed"},
      {"measurement": "Antagonism of induction of PSA and TMPRSS2 by R1881", "setting": "[2]", "result": "antagonized induction"},
      {"measurement": "AR recruitment to PSA enhancer and TMPRSS2 enhancer", "setting": "[3]", "result": "Neither RD162 nor MDV3100 recruited AR"},
      {"measurement": "Growth of VCaP cells", "setting": "[4]", "result": "suppressed growth"},
      {"measurement": "Apoptosis in VCaP cells", "setting": "[5]", "result": "induced apoptosis"},
      {"measurement": "Tumor responses", "setting": "[6]; MDV3100 treatment (fig. S5)", "result": "Tumor responses were also observed"},
      {"measurement": "Patients with sustained decline in serum PSA levels for at least 12 weeks (of 30)", "setting": "[7]; 30 mg or 60 mg daily oral", "result": "Twenty-two"},
      {"measurement": "Tolerability", "setting": "[7]; 30 mg or 60 mg daily oral", "result": "well tolerated"},
      {"measurement": "patients remaining on study longer than 25 weeks (of 30)", "setting": "[7]; 30 mg or 60 mg daily oral", "result": 11, "unit": "patients"},
      {"measurement": "Percent of patients with sustained declines (by >50 percent) in serum PSA", "setting": "[7]; first 30 patients", "result": 43, "unit": "%"},
      {"measurement": "AR recruitment to PSA enhancer and TMPRSS2 enhancer", "setting": "[8]", "result": "Neither RD162 nor MDV3100 recruited AR"},
      {"measurement": "Expression of AR target genes PSA and TMPRSS2 (agonist activity)", "setting": "[9]", "result": "do not have agonist activity"}
    ]},
    {"smiles": "CC(O)(CS(=O)(=O)c1ccc(F)cc1)C(=O)Nc1ccc(C#N)c(C(F)(F)F)c1", "note": "(stereo not drawn) [bicalutamide, reference compound]", "values": [
      {"measurement": "AR recruitment to PSA enhancer and TMPRSS2 enhancer", "setting": "[3]", "result": "only R1881 promoted recruitment"},
      {"measurement": "Plasma levels (mean)", "setting": "[10]", "result": 40, "unit": "µM"},
      {"measurement": "Plasma levels in all mice", "setting": "[10]", "result": "exceeded 25 μM"},
      {"measurement": "Tumors progressed on treatment (of 12)", "setting": "[6]; 10 mg/kg oral daily, 28 days", "result": "seven tumors"},
      {"measurement": "Tumors regressed (12 tumors per group)", "setting": "[6]; 10 mg/kg oral daily, 28 days", "result": "one tumor regressed by 50%"},
      {"measurement": "Tumors with stable disease (of 12)", "setting": "[6]; 10 mg/kg oral daily, 28 days", "result": "four tumors"},
      {"measurement": "increase in tumor volume of progressing tumors", "setting": "[6]; 10 mg/kg oral daily, 28 days", "result": "up to 5 fold"},
      {"measurement": "Median time to tumor progression", "setting": "[6]; continual 10 mg/kg oral daily treatment", "result": 35, "unit": "days"},
      {"measurement": "AR recruitment to PSA enhancer and TMPRSS2 enhancer", "setting": "[8]", "result": "promoted AR recruitment"},
      {"measurement": "growth of AR-negative DU145 xenografts", "setting": "[11]", "result": "neither bicalutamide nor RD162 impaired the growth"},
      {"measurement": "Expression of AR target genes PSA and TMPRSS2 (agonist activity)", "setting": "[9]", "result": "induced"}
    ]},
    {"smiles": "CC1(C)C(=O)N(c2ccc(C#N)c(C(F)(F)F)c2)C(=S)N1CCCCO", "note": "[RU59063]", "values": [
      {"measurement": "affinity for AR, fold reduced compared to testosterone", "setting": "[12]", "result": 3, "unit": "fold"}
    ]},
    {"smiles": "C[C@]1(O)CC[C@H]2[C@@H]3CCC4=CC(=O)CCC4=C3C=C[C@@]21C", "note": "[R1881, reference compound]", "values": [
      {"measurement": "AR recruitment to PSA enhancer and TMPRSS2 enhancer", "setting": "[3]", "result": "only R1881 promoted recruitment"},
      {"measurement": "AR recruitment to PSA enhancer and TMPRSS2 enhancer", "setting": "[8]", "result": "promoted AR recruitment"},
      {"measurement": "Activation of VP16-AR", "setting": "[13]", "result": "activated VP16-AR"}
    ]}
  ]
}
